Article PMC4327855 (Science signaling, 2014)
pIC50: −log10 of the molar value.

Target: T1, TPC1 (Strongylocentrotus purpuratus, UniProt D1J6X7)
T1 sequence (D1J6X7 1-881): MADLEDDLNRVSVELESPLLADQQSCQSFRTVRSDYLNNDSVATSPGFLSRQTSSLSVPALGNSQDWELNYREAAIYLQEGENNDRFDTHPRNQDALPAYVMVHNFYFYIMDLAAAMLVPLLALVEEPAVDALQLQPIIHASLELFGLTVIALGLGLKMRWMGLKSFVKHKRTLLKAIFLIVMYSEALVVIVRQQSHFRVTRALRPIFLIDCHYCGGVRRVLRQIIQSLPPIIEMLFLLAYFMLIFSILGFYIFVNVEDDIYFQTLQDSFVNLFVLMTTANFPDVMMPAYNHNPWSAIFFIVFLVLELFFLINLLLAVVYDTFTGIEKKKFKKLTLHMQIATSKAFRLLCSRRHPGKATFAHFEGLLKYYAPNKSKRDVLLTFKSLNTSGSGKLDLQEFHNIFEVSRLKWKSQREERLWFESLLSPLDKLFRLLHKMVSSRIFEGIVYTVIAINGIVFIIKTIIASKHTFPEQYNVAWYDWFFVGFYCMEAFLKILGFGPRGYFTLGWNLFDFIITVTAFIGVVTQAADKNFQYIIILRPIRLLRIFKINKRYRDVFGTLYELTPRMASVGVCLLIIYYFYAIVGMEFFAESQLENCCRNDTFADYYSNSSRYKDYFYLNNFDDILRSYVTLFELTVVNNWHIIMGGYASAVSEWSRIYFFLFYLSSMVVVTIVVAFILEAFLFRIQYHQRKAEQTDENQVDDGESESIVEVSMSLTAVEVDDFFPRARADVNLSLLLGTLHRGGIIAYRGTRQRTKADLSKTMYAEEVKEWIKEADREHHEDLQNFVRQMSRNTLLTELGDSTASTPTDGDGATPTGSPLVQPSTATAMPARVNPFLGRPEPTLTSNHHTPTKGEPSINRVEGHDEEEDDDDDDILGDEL
Assay: inhibition of NAADP-evoked Ca2+ signals
Type: cell-based

**Q.** `COC(=O)C1=C(C)NC(C)=C(C(=O)OC)C1c1ccccc1[N+](=O)[O-]` [nifedipine] was tested. Which pIC50 did it give?
**A.** 5.40
